Values belong to the compound of their own block, whether it stands above or below them.
What was measured:
Type in all cases: physicochemical
[1] = Photochromy observed in solution and in the glass
Procedure: (ix) 1 g of the above reaction product is dissolved in 50 ml of absolute THF while stirring and cooled in an ice bath. Lithium aluminium hydride is added in small portions until the colour of the reaction solution does no longer brighten up. Stirring is then continued for another 10 min. and the solution is poured into water, acidified with conc. hydrochloric acid until the phases are clear whereupon the organic phase is isolated. After extraction with water, drying over sodium sulphate and removal of the solvent by rotation a brownish viscous residue remains which crystallises when methanol is added. The suspension is stirred at room temperature for some minutes more and then the precipitate is exhausted. The slightly brownish solid (0.8 g) was identified as 6-methoxy-3-(4-methoxy phenyl)-3-phenyl-13-hydroxy-benz[p]indeno[2,1-f]naphtho[1,2-b]pyrane by means of the NMR spectrum.

[2] = Absorption maximums of the closed and open forms and colour (Table 1, FIGS. 4 and 5); details: for max closed form / max closed form (shoulder): closed (not excited) form; for max closed form: Transhade-150 test specimen, 500 ppm; for colour / max open form: open (excited) form
Description: For illustration of the aforedescribed bathochromic shift of the inventive compounds, compared against prior art, comparative tests have been carried out.
The first three compounds in Table 1--V1, V2 and Example 3--correspond to prior art (cf. WO 96/14596); the production of V1 and V2 is described there in details.
The production of the test specimens and the measuring methodology are described in details i the Examples.
FIGS. 4 and 5 show the absorption of the closed form or the absorption of the open form, compared against the absorption of the prior art compounds V1 and V2, expressed by plotting the extinction versus the wavelength. For a better recognition of the bathochromic shift a normalisation of the absorption intensity to roughly the same value has been made in the open form.
Absorption maximums of the open and closed forms, starting out
(§1) 500 ppm of the respective photochromic dye are dissolved in the employed monomer (TRANSHADE-150 from the company of Tokuyama; index of refraction 1.52) at room temperature while stirring. After the addition of an initiator of the alkyl peroxy-ester type (1.5% by weight) degassing is performed twice and subsequently the polymerisation is carried out in correspondence with the temperature programme recommended by the Tokuyama company. The glass casting moulds are coloured in black so that the entirety of the photochromic dyes may be integrated into the matrix in a non-excited state. After completion of the polymerisation process the test specimens are additionally tempered at 100° C. for 2 hours.

[3] = Brightening rate and brightening kinetics in the polymer Transhade-150; details: for Δ(10 min, 23° C.) relative brightening: within 10 min at 23° C.
Procedure: For a further illustration of the foregoing explanations comparative tests have been carried out again on the inventive compounds and on known compounds. The compounds used are derived from the compound of the following general formula: [drawing 5]
The brightening rate and the brightening kinetics were measured for differently substituted systems in the polymer Transhade-150 of the company of Tokuyama at different temperatures. The results obtained are summarised in the following, with the following terms being used:
Δ=relative brightening within 10 minutes at 23° C.
=100% (.tau.10 min-.tau.s)/(.tau.0-.tau.s)
.tau.s is the transmission achieved after 15 min of obscuration
.tau.0 is the transmission in the fully brightened condition
.tau.10 min is the transmission after 10 min brightening in the dark
T1/2 =time elapsing up to a brightening level corresponding to half the darkening level (half-period)
The brightening kinetics of differently substituted systems was determined, with R1, R2 and R3 representing either the methoxy group or hydrogen; the measurements were performed at 23° C. and 40° C.
Production of the test specimens:
as §1
Plotting of the kinetics graphs:
For the determination of the brightening rates the test specimens so produced were measured in a common kinetics test bench (irradiation with 50 klux in compliance with EN 1836, item 6.1.3.1.1). The exposure time was 15 minutes in each case, brightening takes place in the dark. During exposure and brightening the transmission graph--evaluated by the sensitivity to brightness of the human eye, V λ--is recorded. The glass temperature is controlled via a cuvette designed for being controlled by means of a thermostat.

[4] = Table 3: R1 = OCH3, R2 = R3 = H
[5] = Table 4: R1 = R3 = OCH3, R2 = H

Structure (SMILES): COc1ccc(C2(c3ccccc3)C=Cc3c4c(c5ccc(OC)cc5c3O2)-c2ccc3ccccc3c2C4O)cc1 (stereo not shown) [Example 1, 6-methoxy-3-(4-methoxyphenyl)-3-phenyl-13-hydroxy-benz[p]indeno[2,1-f]naphtho[1,2-b]pyrane]
photochromy colour [1]: green photochromy | max closed form [2]: 385 nm | colour [2]: green | max open form [2]: 600 nm

Structure (SMILES): COc1ccc(C2(c3ccccc3)C=Cc3c4c(c5ccc(OC)cc5c3O2)-c2ccccc2C4O)cc1 (stereo not shown) [Example 3, 6-methoxy-3-(4-methoxyphenyl)-3-phenyl-13-hydroxy-indeno[2,1-f]-naphtho[1,2-b]pyrane]
max closed form (shoulder) [2]: 375 nm | max closed form [2]: 360 nm | colour [2]: blue | max open form [2]: 575 nm

Structure (SMILES): CCC1(O)c2ccccc2-c2c1c1c(c3cc(OC)ccc23)OC(c2ccccc2)(c2ccc(OC)cc2)C=C1 (stereo not shown) [Example 4, 6-methoxy-3-(4-methoxyphenyl)-3-phenyl-13-ethyl-13-hydroxy-indeno[2,1-f]naphtho[1,2-b]pyrane]
T1/2 (40° C.) [3, 4]: 7.0 min | Δ(10 min, 23° C.) relative brightening [3, 4]: 25%

Structure (SMILES): COc1ccc(C2(c3ccccc3)C=Cc3c4c(c5ccc(OC)cc5c3O2)-c2ccccc2C4(O)c2ccccc2)cc1 (stereo not shown) [Example 5, 13-hydroxy-6-methoxy-3-(4-methoxyphenyl)-3,13-diphenyl indeno[2,1-f]-naphtho[1,2-b]pyrane]
T1/2 (40° C.) [3, 4]: 7.0 min | Δ(10 min, 23° C.) relative brightening [3, 4]: 22%

Structure (SMILES): COc1ccc(C2(c3ccccc3)C=Cc3c4c(c5ccc(OC)cc5c3O2)-c2ccccc2C4(O)c2cccc3ccccc23)cc1 (stereo not shown) [Example 6, 6-methoxy-3-(4-methoxyphenyl)-3-phenyl-13-(1-naphthyl)-13-hydroxy-indeno [2,1-f]-naphtho[1,2-b]pyrane]
T1/2 (40° C.) [3, 4]: 5.0 min | Δ(10 min, 23° C.) relative brightening [3, 4]: 29%

Structure (SMILES): COc1ccc(C2(c3ccccc3)C=Cc3c4c(c5ccc(OC)cc5c3O2)-c2ccccc2C4(O)c2ccccc2C)cc1 (stereo not shown) [Example 7]
T1/2 (40° C.) [3, 4]: 4.2 min | Δ(10 min, 23° C.) relative brightening [3, 4]: 34%

Structure (SMILES): COc1ccc(C2(c3ccccc3)C=Cc3c4c(c5ccc(OC)cc5c3O2)-c2ccccc2C4(O)c2cc(C)ccc2C)cc1 (stereo not shown) [Example 8, 6-methoxy-3-(4-methoxyphenyl)-3-phenyl-13-(2,5-dimethylphenyl)-13-hydroxy-indeno[2,1-f]naphtho[1,2-b]pyrane]
T1/2 (40° C.) [3, 4]: 4.0 min | Δ(10 min, 23° C.) relative brightening [3, 4]: 36%

Structure (SMILES): COc1ccc(C2(c3ccccc3)C=Cc3c4c(c5ccc(OC)cc5c3O2)-c2ccccc2C4(O)c2sccc2C)cc1 (stereo not shown) [Example 9, 6-methoxy-3-(4-methoxyphenyl)-3-phenyl-13-(3-methyl-2-thienyl)-13-hydroxy-indeno[2,1-f]naphtho[1,2-b]pyrane]
T1/2 (40° C.) [3, 4]: 3.4 min | Δ(10 min, 23° C.) relative brightening [3, 4]: 38%

The next lines start with the values.

max closed form (shoulder) [2]: 375 nm | max closed form [2]: 350 nm | colour [2]: blue-violet | max open form [2]: 570 nm
Structure (SMILES): COc1ccc(C2(c3ccc(OC)cc3)C=Cc3c4c(c5ccc(C)cc5c3O2)-c2ccc(C)cc2C4O)cc1 (stereo not shown) [Example V2]

T1/2 (40° C.) [3, 5]: 2.5 min | Δ(10 min, 23° C.) relative brightening [3, 5]: 43%
Structure (SMILES): COc1ccc(C2(c3ccc(OC)cc3)C=Cc3c4c(c5ccc(OC)cc5c3O2)-c2ccccc2C4(O)c2ccccc2)cc1 (stereo not shown) [Example V3]

T1/2 (40° C.) [3, 5]: 2.5 min | Δ(10 min, 23° C.) relative brightening [3, 5]: 44%
Structure (SMILES): COc1ccc(C2(c3ccc(OC)cc3)C=Cc3c4c(c5ccc(OC)cc5c3O2)-c2ccccc2C4(O)c2cccc3ccccc23)cc1 (stereo not shown) [Example V4]
